One assay has as its target T1, FLT3 kinase (Homo sapiens, UniProt P36888).
T1 construct: made in house; host or cells: T7 phage display or HEK-293 cells
T1 sequence (P36888 27-993): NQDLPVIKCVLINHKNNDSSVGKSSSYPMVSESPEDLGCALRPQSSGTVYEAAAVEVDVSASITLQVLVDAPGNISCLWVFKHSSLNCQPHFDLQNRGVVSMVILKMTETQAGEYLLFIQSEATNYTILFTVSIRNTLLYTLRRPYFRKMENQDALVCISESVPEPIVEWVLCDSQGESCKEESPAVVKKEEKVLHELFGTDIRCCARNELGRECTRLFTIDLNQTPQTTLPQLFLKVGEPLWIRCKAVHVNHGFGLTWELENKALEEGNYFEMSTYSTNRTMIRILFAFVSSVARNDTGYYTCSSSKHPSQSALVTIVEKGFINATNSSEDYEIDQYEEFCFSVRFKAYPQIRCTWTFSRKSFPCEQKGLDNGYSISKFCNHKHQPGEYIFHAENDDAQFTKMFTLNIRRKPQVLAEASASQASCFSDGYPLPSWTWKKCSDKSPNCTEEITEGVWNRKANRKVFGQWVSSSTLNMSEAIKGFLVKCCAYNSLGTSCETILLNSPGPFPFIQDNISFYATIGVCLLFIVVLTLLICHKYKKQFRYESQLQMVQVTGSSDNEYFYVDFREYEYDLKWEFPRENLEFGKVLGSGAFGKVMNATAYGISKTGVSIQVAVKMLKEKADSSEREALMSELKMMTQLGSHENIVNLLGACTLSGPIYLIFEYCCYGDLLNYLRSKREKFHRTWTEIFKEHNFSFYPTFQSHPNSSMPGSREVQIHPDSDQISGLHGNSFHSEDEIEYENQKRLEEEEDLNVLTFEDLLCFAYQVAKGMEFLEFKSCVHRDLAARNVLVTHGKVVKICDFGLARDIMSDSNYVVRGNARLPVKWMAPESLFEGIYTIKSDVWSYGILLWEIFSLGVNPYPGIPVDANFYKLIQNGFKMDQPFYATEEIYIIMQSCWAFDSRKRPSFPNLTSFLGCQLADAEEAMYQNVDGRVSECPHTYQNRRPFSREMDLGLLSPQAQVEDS
The assay is described as follows: Competition binding assay, FLT3 Kd. In short, it runs like this:
(§1)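 Kinases, either T7 phage fusions or HEK-293-expressed and DNA-tagged, competed for immobilised biotinylated affinity ligand against test compound, 1 h at RT in binding buffer with 6 mM DTT. Bound kinase eluted with 0.5 μM free ligand and quantified by qPCR; Kd from 11-point threefold dilutions.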

The next assay relates to MV4-11 cells. Kind of assay: MV4-11 cell proliferation assay (Alamar Blue). Format: cell-based. The note with it: Homo sapiens, MV4-11, 72 h, 3 days incubation. The essentials:
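Flt3-ITD MV4-11 cells were serum-starved overnight in Iscove's with 0.5% FBS, then given compound at 9 half-log concentrations (0.5% DMSO) for 3 days at 37° C. Alamar Blue reduction was read after 3 h by fluorescence (560/590 nm). IC50 is the mean of duplicates versus negative control.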
For orientation: Resazurin is reduced to fluorescent resorufin, in cell work by metabolically active cells.

Assay [1] addresses kinase panel containing either 359 or 386 distinct kinases. Kind of assay: Selectivity score S10 from competition binding against a panel of kinases. The following applies: compounds at 10 μM; panel of 386 distinct kinases. In short, it runs like this:
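Compounds were tested at 10 μM in competition binding against T7 phage-fused or HEK-293-expressed DNA-tagged kinases with immobilized affinity ligands, 1 h at room temperature. Bound kinase was quantified by qPCR as percent of DMSO control; S10 is the fraction of distinct kinases (mutants excluded) with POC below 10.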

The target of the next assay is T2, CSF-1R kinase (Homo sapiens, UniProt P07333).
T2 construct: made in house; host or cells: T7 phage display or HEK-293 cells
T2 sequence (P07333 20-972): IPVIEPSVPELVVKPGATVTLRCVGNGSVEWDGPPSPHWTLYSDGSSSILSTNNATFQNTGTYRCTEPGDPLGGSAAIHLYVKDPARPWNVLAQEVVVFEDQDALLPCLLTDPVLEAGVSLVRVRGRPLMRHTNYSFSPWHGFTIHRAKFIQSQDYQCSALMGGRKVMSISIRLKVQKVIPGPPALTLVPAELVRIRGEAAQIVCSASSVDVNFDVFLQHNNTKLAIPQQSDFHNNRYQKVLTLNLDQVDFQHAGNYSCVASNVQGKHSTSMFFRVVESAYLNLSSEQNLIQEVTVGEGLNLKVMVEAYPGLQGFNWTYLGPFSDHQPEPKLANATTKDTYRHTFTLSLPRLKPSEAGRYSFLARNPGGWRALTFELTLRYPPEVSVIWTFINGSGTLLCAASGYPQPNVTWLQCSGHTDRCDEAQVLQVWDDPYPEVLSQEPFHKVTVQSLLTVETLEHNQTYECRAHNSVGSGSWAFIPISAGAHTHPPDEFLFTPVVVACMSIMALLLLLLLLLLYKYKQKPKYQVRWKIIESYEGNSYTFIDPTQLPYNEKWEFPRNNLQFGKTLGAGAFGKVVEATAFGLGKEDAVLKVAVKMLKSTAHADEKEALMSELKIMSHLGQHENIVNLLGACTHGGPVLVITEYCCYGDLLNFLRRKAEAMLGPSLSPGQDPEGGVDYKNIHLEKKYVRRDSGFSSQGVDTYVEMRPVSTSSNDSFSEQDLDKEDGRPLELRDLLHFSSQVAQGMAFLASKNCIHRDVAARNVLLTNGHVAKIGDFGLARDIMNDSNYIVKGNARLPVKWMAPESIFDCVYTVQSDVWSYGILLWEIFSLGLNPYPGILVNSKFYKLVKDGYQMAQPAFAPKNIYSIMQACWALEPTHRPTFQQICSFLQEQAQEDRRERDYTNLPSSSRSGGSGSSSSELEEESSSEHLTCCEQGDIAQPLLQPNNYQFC
The assay is described as follows: Competition binding assay, CSF-1R Kd. The essentials: as §1

The target of the next assay is T3, KIT kinase (Homo sapiens, UniProt P10721).
T3 construct: made in house; host or cells: T7 phage display or HEK-293 cells
T3 sequence (P10721 26-976): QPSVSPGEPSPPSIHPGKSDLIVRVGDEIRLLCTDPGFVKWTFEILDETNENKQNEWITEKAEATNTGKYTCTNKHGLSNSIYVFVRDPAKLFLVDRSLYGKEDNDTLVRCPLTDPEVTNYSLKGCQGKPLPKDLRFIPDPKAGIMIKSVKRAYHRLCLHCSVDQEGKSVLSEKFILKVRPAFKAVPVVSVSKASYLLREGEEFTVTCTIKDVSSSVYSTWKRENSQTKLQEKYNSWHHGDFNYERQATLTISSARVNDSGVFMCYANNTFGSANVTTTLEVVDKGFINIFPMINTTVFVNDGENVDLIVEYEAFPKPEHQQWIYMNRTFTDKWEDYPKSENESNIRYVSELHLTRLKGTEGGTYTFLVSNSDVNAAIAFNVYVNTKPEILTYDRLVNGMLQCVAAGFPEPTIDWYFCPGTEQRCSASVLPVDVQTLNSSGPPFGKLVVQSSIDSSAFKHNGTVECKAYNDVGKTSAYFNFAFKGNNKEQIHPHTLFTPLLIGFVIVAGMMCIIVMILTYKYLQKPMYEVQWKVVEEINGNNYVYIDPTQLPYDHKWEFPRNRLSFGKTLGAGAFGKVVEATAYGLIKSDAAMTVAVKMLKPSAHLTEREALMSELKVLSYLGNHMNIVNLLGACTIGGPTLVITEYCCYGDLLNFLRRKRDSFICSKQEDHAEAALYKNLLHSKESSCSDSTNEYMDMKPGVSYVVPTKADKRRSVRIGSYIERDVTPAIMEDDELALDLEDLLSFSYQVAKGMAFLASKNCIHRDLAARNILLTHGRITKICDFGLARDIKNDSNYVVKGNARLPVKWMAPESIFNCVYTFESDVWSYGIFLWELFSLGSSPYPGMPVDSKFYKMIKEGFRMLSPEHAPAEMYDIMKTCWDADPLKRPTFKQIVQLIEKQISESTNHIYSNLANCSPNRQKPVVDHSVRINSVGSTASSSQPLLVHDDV
Kind of assay: Competition binding assay, KIT Kd. The essentials: as §1

pIC50, pKd: −log10 of the molar value.

For `CC(C)(C)c1cc(NC(=O)Cc2ccc(-c3ccc(NCCS(C)(=O)=O)nc3)cc2)no1.CS(=O)(=O)O` [Example 92, 5-(4-(2-(5-tert-butylisoxazol-3-ylamino)-2-oxoethyl)phenyl)-N-(2-(methylsulfonyl)ethyl)pyridin-2-aminium methanesulfonate], the pKd on FLT3 kinase is at least 9.00; on CSF-1R kinase, at least 8.00; at KIT kinase, 8.00 to 9.00. In the assay with MV4-11 cells, this compound gave a pIC50 of 8.00 to 9.00. In addition, the “Kinase specificty: S(10)-386 panel” value in assay [1] is given as “B (0.1<B≦0.2 nM)”.

As to `CC(C)(C)c1cc(NC(=O)Cc2ccc(-c3cnc(N)c(F)c3)cc2)no1.CS(=O)(=O)O` [Example 94, 5-(4-(2-(5-tert-butylisoxazol-3-ylamino)-2-oxoethyl)phenyl)-3-fluoropyridin-2-aminium methanesulfonate], the pKd at FLT3 kinase was 8.00 to 9.00; at CSF-1R kinase, at least 8.00; at KIT kinase, 8.00 to 9.00. Moreover, the pIC50 in the assay on MV4-11 cells was at least 9.00. In assay [1], the “Kinase specificty: S(10)-386 panel” value is “B (0.1<B≦0.2 nM)”.

In the case of `CC(C)(C)c1cc(NC(=O)Cc2ccc(-c3ccc(N)nc3F)cc2)no1.CS(=O)(=O)O` [Example 95, 5-(4-(2-(5-tert-butylisoxazol-3-ylamino)-2-oxoethyl)phenyl)-6-fluoropyridin-2-aminium methanesulfonate], the results for the pKd on FLT3 kinase, at CSF-1R kinase and at KIT kinase were at least 9.00, at least 8.00 and 8.00 to 9.00, respectively. In addition, the pIC50 in the assay with MV4-11 cells is at least 9.00. Further, the “Kinase specificty: S(10)-386 panel” value in assay [1] is given as “A (A≦0.1)”.

Consider `CC(C)(C)c1cc(NC(=O)Cc2ccc(-c3ccc(NCCN4CCOCC4)nc3)cc2)on1.CS(=O)(=O)O` [Example 96, 5-(4-(2-(3-tert-butylisoxazol-5-ylamino)-2-oxoethyl)phenyl)-N-(2-morpholinoethyl)pyridin-2-aminium methanesulfonate], for which the pKd at FLT3 kinase was at least 9.00; on CSF-1R kinase, at least 8.00; on KIT kinase, at least 9.00. Moreover, the pIC50 with MV4-11 cells was 8.00 to 9.00. The “Kinase specificty: S(10)-386 panel” value in assay [1] is given as “B (0.1<B≦0.2 nM)”.

Regarding `CC(C)(CF)c1cc(NC(=O)Nc2ccc(-c3ccc(N)nc3)cc2)on1` [Example 97, 1-(4-(6-aminopyridin-3-yl)phenyl)-3-(3-(1-fluoro-2-methylpropan-2-yl)isoxazol-5-yl)urea], the figures for the pKd on FLT3 kinase, on CSF-1R kinase and at KIT kinase were 8.00 to 9.00, at least 8.00 and 8.00 to 9.00, respectively. The same compound showed a pIC50 in the assay with MV4-11 cells of 8.00 to 9.00. Besides, the “Kinase specificty: S(10)-386 panel” value in assay [1] was “A (A≦0.1)”.

In the case of `CC1(c2cc(NC(=O)Nc3ccc(-c4ccc(N)nc4)cc3)no2)COC1.CS(=O)(=O)O` [Example 98, 5-(4-(3-(5-(3-methyloxetan-3-yl)isoxazol-3-yl)ureido)phenyl)pyridin-2-aminium methanesulfonate], the results for the pKd on FLT3 kinase, on CSF-1R kinase and at KIT kinase were 8.00 to 9.00, at least 8.00 and 8.00 to 9.00, respectively. Moreover, the pIC50 in the assay with MV4-11 cells was 7.00 to 8.00. The “Kinase specificty: S(10)-386 panel” value in assay [1] is “A (A≦0.1)”.

In the case of `CC1(c2cc(NC(=O)Cc3ccc(-c4ccc(N)nc4)cc3)no2)COC1.CS(=O)(=O)O` [Example 99, 5-(4-(2-((5-(3-methyloxetan-3-yl)isoxazol-3-yl)amino)-2-oxoethyl)phenyl)pyridin-2-aminium methanesulfonate], the pKd on FLT3 kinase is at least 9.00; on CSF-1R kinase, at least 8.00; at KIT kinase, 8.00 to 9.00. Also, the pIC50 in the assay on MV4-11 cells is 8.00 to 9.00. In assay [1], the “Kinase specificty: S(10)-386 panel” value is given as “A (A≦0.1)”.

On to `CC1(c2cc(NC(=O)Cc3ccc(-c4ccc(N)nc4)cc3)no2)CC1.CS(=O)(=O)O` [Example 100, 5-(4-(2-(5-(1-methylcyclopropyl)isoxazol-3-ylamino)-2-oxoethyl)phenyl)pyridin-2-aminium methanesulfonate], for which the pKd on FLT3 kinase is at least 9.00; at CSF-1R kinase, at least 8.00; on KIT kinase, at least 9.00. The pIC50 in the assay on MV4-11 cells was 8.00 to 9.00. The “Kinase specificty: S(10)-386 panel” value in assay [1] was “A (A≦0.1)”.

As for `CC(C)(F)c1cc(NC(=O)Cc2ccc(-c3ccc(N)nc3)cc2)on1.CS(=O)(=O)O` [Example 101, 5-(4-(2-(3-(2-fluoropropan-2-yl)isoxazol-5-ylamino)-2-oxoethyl)phenyl)pyridin-2-aminium methanesulfonate], the pKd on FLT3 kinase is at least 9.00; on CSF-1R kinase, at least 8.00; at KIT kinase, at least 9.00. Also, in the assay on MV4-11 cells, the pIC50 is 8.00 to 9.00. Also, in assay [1], the “Kinase specificty: S(10)-386 panel” value was “A (A≦0.1)”.

With `CC(=O)O.CC1(c2cc(NC(=O)Cc3ccc(-c4ccc(N)nc4)cc3)no2)CC1(F)F` (centres unmarked) [Example 102, 5-(4-(2-((5-(2,2-difluoro-1-methylcyclopropyl)isoxazol-3-yl)amino)-2-oxoethyl)phenyl)pyridin-2-aminium acetate], the pKd at FLT3 kinase is at least 9.00; on CSF-1R kinase, at least 8.00; on KIT kinase, 8.00 to 9.00. The same compound gave a pIC50 with MV4-11 cells of at least 9.00. Moreover, the “Kinase specificty: S(10)-386 panel” value in assay [1] was “B (0.1<B≦0.2 nM)”.

As for `CC(=O)O.Nc1ccc(-c2ccc(CC(=O)Nc3cc(C4(CF)CC4)on3)cc2)cn1` [Example 103, 5-(4-(2-((5-(1-(fluoromethyl)cyclopropyl)isoxazol-3-yl)amino)-2-oxoethyl)phenyl)pyridin-2-aminium acetate], the values for the pKd at FLT3 kinase, at CSF-1R kinase and at KIT kinase were at least 9.00, at least 8.00 and at least 9.00, respectively. Also, the negative-log IC50 (pIC50) in the assay with MV4-11 cells was at least 9.00. The “Kinase specificty: S(10)-386 panel” value in assay [1] was “A (A≦0.1)”.

As to `CC1(c2cc(NC(=O)Nc3ccc(-c4ccc(N)nc4)cn3)no2)CC1.CS(=O)(=O)O` [Example 104, 6′-(3-(5-(1-methylcyclopropyl)isoxazol-3-yl)ureido)-3,3′-bipyridin-6-aminium methanesulfonate], the pKd at FLT3 kinase is at least 9.00; at CSF-1R kinase, at least 8.00; on KIT kinase, at least 9.00. In the assay with MV4-11 cells, this compound had a pIC50 of 7.00 to 8.00. Also, in assay [1], the “Kinase specificty: S(10)-386 panel” value is “A (A≦0.1)”.

In the case of `CC(C)(C)c1cc(NC(=O)Cc2ccc(-c3ccc(NCCN4CCOCC4)nc3)cc2)no1.CS(=O)(=O)O` [Example 105, 5-(4-(2-(5-tert-butylisoxazol-3-ylamino)-2-oxoethyl)phenyl)-N-(2-morpholinoethyl)pyridin-2-aminium methanesulfonate], the pKd on FLT3 kinase was at least 9.00; at CSF-1R kinase it was at least 8.00; on KIT kinase, at least 9.00. In addition, the pIC50 in the assay on MV4-11 cells is 8.00 to 9.00. Moreover, the “Kinase specificty: S(10)-386 panel” value in assay [1] is given as “B (0.1<B≦0.2 nM)”.

In the case of `CC1(c2cc(NC(=O)Nc3ccc(-c4ccc(N)nc4)cc3)no2)CC1.CS(=O)(=O)O` [Example 106, 5-(4-(3-(5-(1-methylcyclopropyl)isoxazol-3-yl)ureido)phenyl)pyridin-2-aminium methanesulfonate], the negative-log Kd (pKd) was at least 9.00 on FLT3 kinase, at least 8.00 on CSF-1R kinase and at least 9.00 at KIT kinase. This compound also showed a pIC50 in the assay on MV4-11 cells of 8.00 to 9.00. Further, the “Kinase specificty: S(10)-386 panel” value in assay [1] is given as “A (A≦0.1)”.

For `CC(C)(C)c1cc(NC(=O)Nc2ccc(-c3ccc(NCCN4CCC(F)(F)CC4)nc3)cc2)no1.CS(=O)(=O)O` [Example 107, 1-(2-((5-(4-(3-(5-(tert-butyl)isoxazol-3-yl)ureido)phenyl)pyridin-2-yl)amino)ethyl)-4,4-difluoropiperidin-1-ium methanesulfonate], the pKd on FLT3 kinase is at least 9.00; on CSF-1R kinase it was at least 8.00; on KIT kinase, 8.00 to 9.00. The pIC50 with MV4-11 cells was 8.00 to 9.00. The “Kinase specificty: S(10)-386 panel” value in assay [1] is recorded as “A (A≦0.1)”.

Consider `CC(C)(C)c1cc(NC(=O)Cc2ccc(-c3ccc(NCCN4CCC(F)(F)CC4)nc3)cc2)no1.CS(=O)(=O)O` [Example 108, 1-(2-(5-(4-(2-(5-tert-butylisoxazol-3-ylamino)-2-oxoethyl)phenyl)pyridin-2-ylamino)ethyl)-4,4-difluoropiperidinium methanesulfonate], for which the values for the pKd at FLT3 kinase, at CSF-1R kinase and at KIT kinase were at least 9.00, at least 8.00 and 8.00 to 9.00, respectively. For the same compound, the pIC50 in the assay on MV4-11 cells was 8.00 to 9.00. Further, the “Kinase specificty: S(10)-386 panel” value in assay [1] is “A (A≦0.1)”.

In general, pKd refers to −log10 of the Kd, conventionally taken in molar units. Low readings indicate a large Kd, high ones a small Kd. The term pIC50 denotes the negative decadic logarithm of the IC50, by convention in mol/L. Low values mean a high IC50, high ones a low IC50.

(Values after US20130035326A1 (AMBIT BIOSCIENCES CORPORATION, priority 2009, published 2013).)
